In ChEMBL document CHEMBL1201862, “PubChem BioAssay data set” (2004):
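Cultured in 96-well plates, cells were exposed to test compound for 48 hours across five concentrations. At the GI50, growth is halved.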 Activity calls are given as the source filed them. No stated cut-off is given here; in the data, active = GI50 up to about 1.1 µM and inactive = higher. Where a SMILES comes first, the peptide text is derived from it. [ ]: non-standard residue; d: D form. The star is where a group is joined. Phe(2-OMe) = COc1ccccc1C[CH](N)C(=O)O; Cbz = O=C(OCc1ccccc1)*; OBn = c1ccc(CO*)cc1

Legend:
Assay in all cases: inhibition of tumour cell growth, NCI panel, 48 h
MDA-MB-231 = tested on: MDA-MB-231
KM12 = tested on: KM12
SK-MEL-5 = tested on: SK-MEL-5
HOP-62 = tested on: HOP-62
ACHN = tested on: ACHN
MCF7 = tested on: MCF7
PC-3 = tested on: PC-3
UO-31 = tested on: UO-31
IGROV-1 = tested on: IGROV-1
DU-145 = tested on: DU-145
NCI-H226 = tested on: NCI-H226
SN12C = tested on: SN12C
NCI-H522 = tested on: NCI-H522
U-251 = tested on: U-251
OVCAR-8 = tested on: OVCAR-8
MOLT-4 = tested on: MOLT-4
SK-OV-3 = tested on: SK-OV-3
SW-620 = tested on: SW-620
LOX IMVI = tested on: LOX IMVI
HL-60 = tested on: HL-60

Measured: GI50

Cc1cc(N(CCC#N)CCC#N)ccc1C(/N=N/c1ccc(C(=O)O)cc1)=N\NC(=O)c1ccccc1
inactive: MDA-MB-231 57.8 µM | KM12 18.2 µM | SK-MEL-5 19.5 µM | HOP-62 32.4 µM | ACHN 59.7 µM | MCF7 22.8 µM | PC-3 26.1 µM | UO-31 42.7 µM | IGROV-1 50.2 µM | DU-145 71.4 µM | NCI-H226 40.9 µM | SN12C 47.3 µM | NCI-H522 13.2 µM | U-251 34.8 µM | OVCAR-8 28.1 µM | MOLT-4 47.1 µM | SK-OV-3 49.2 µM

NS(=O)(=O)c1nnc(NS(=O)(=O)c2ccccc2C(=O)O)s1
inactive: MDA-MB-231 > 100 µM | KM12 > 100 µM | SW-620 > 100 µM | SK-MEL-5 > 100 µM | HOP-62 > 100 µM | ACHN > 100 µM | MCF7 > 100 µM | UO-31 > 100 µM | DU-145 > 100 µM | NCI-H226 > 100 µM | SN12C > 100 µM | LOX IMVI > 100 µM | NCI-H522 > 100 µM | U-251 > 100 µM | OVCAR-8 > 100 µM | MOLT-4 76.7 µM | SK-OV-3 > 100 µM

COc1ccc2c(c1)C(N)CC2=O (centres undefined)
inactive: MDA-MB-231 > 100 µM | KM12 > 100 µM | SW-620 > 100 µM | SK-MEL-5 > 100 µM | HOP-62 > 100 µM | ACHN > 100 µM | MCF7 > 100 µM | PC-3 18.9 µM | UO-31 > 100 µM | IGROV-1 > 100 µM | DU-145 > 100 µM | NCI-H226 > 100 µM | SN12C > 100 µM | NCI-H522 > 100 µM | U-251 > 100 µM | OVCAR-8 > 100 µM | MOLT-4 > 100 µM | SK-OV-3 > 100 µM

O=C(Cn1c2ccc(Br)cc2c2nc3ccccc3nc21)NC1CCCCC1
inactive: MDA-MB-231 > 100 µM | KM12 > 100 µM | SW-620 > 100 µM | SK-MEL-5 > 100 µM | HOP-62 > 100 µM | ACHN > 100 µM | PC-3 > 100 µM | UO-31 > 100 µM | IGROV-1 > 100 µM | DU-145 > 100 µM | NCI-H226 > 100 µM | SN12C > 100 µM | LOX IMVI > 100 µM | NCI-H522 > 100 µM | U-251 > 100 µM | OVCAR-8 > 100 µM | MOLT-4 > 100 µM | SK-OV-3 > 100 µM

COC(=O)C(Cc1ccccc1OC)NC(=O)C(CC(=O)OCc1ccccc1)NC(=O)OCc1ccccc1 (centres undefined) (Cbz-Asp(OBn)-[Phe(2-OMe)]-OMe; configuration not given here)
inactive: KM12 > 100 µM | SW-620 > 100 µM | HL-60 34.5 µM | SK-MEL-5 > 100 µM | HOP-62 > 100 µM | ACHN > 100 µM | MCF7 54 µM | PC-3 60 µM | UO-31 64.6 µM | IGROV-1 > 100 µM | NCI-H226 > 100 µM | U-251 97.5 µM | OVCAR-8 > 100 µM | MOLT-4 33.7 µM

Cc1c2cnccc2nc2[nH]c3ccncc3c12
inactive: MDA-MB-231 55 µM | KM12 6.79 µM | SW-620 3.93 µM | HL-60 19.9 µM | SK-MEL-5 5.69 µM | HOP-62 2.17 µM | ACHN 1.59 µM | PC-3 4.56 µM | UO-31 4.08 µM | IGROV-1 2.85 µM | DU-145 10.7 µM | SN12C 3.33 µM | LOX IMVI 2.29 µM | NCI-H522 3.91 µM | U-251 4.68 µM | OVCAR-8 6.98 µM | MOLT-4 6.31 µM | SK-OV-3 21.5 µM

CCCNC(=S)NNC(=O)CSc1nc(-c2ccccc2)c(-c2ccccc2)[nH]1
inactive: KM12 33 µM | SW-620 99.3 µM | HL-60 23.2 µM | SK-MEL-5 25.9 µM | HOP-62 > 100 µM | ACHN 46.7 µM | UO-31 30.8 µM | IGROV-1 65 µM | NCI-H226 91.6 µM | SN12C 74 µM | LOX IMVI 48.2 µM | NCI-H522 26.7 µM | U-251 56.1 µM | OVCAR-8 73.1 µM | MOLT-4 24.2 µM | SK-OV-3 > 100 µM

CCCCN(CC)C(=O)C(=O)Cc1nc2ccc(C(=O)c3ccccc3)cc2nc1O
inactive: KM12 > 100 µM | SW-620 > 100 µM | HL-60 20.8 µM | SK-MEL-5 50.1 µM | HOP-62 > 100 µM | ACHN 41 µM | UO-31 33.3 µM | IGROV-1 > 100 µM | NCI-H226 > 67.9 µM | SN12C > 86.1 µM | LOX IMVI > 84.7 µM | NCI-H522 20.3 µM | U-251 73.1 µM | OVCAR-8 > 100 µM | MOLT-4 21.1 µM | SK-OV-3 85.1 µM

N#Cc1nc(CN2C(=O)c3ccccc3C2=O)oc1N
inactive: MDA-MB-231 > 100 µM | KM12 > 100 µM | SW-620 > 100 µM | SK-MEL-5 > 100 µM | HOP-62 > 100 µM | ACHN > 100 µM | MCF7 > 100 µM | PC-3 > 100 µM | IGROV-1 > 100 µM | DU-145 > 100 µM | NCI-H226 > 100 µM | SN12C > 100 µM | NCI-H522 > 100 µM | U-251 > 100 µM | OVCAR-8 > 100 µM | MOLT-4 > 100 µM | SK-OV-3 > 100 µM

O=c1[nH]c(=O)n(C2CC(O)C(CO)O2)cc1C(F)(C(F)(F)F)C(F)(F)F (centres undefined)
inactive: KM12 > 100 µM | SW-620 > 100 µM | HL-60 > 100 µM | SK-MEL-5 > 100 µM | HOP-62 > 100 µM | ACHN > 100 µM | UO-31 > 100 µM | IGROV-1 > 100 µM | NCI-H226 > 100 µM | SN12C > 100 µM | LOX IMVI > 100 µM | NCI-H522 45.2 µM | U-251 > 100 µM | OVCAR-8 > 100 µM | MOLT-4 > 100 µM | SK-OV-3 > 100 µM

O=c1[nH]nc(Cc2ccccc2)n1/N=C/c1cccs1
inactive: MDA-MB-231 23.4 µM | KM12 > 100 µM | SW-620 > 100 µM | HOP-62 > 100 µM | ACHN > 100 µM | MCF7 > 100 µM | PC-3 > 100 µM | UO-31 > 100 µM | DU-145 > 100 µM | NCI-H226 > 100 µM | SN12C > 100 µM | LOX IMVI > 100 µM | U-251 48 µM | OVCAR-8 > 100 µM | MOLT-4 80.7 µM | SK-OV-3 > 100 µM

COC(=O)/C=C(\C(=O)OC)c1c2c3c(cc(OC)c(OC)c3c3ccccc13)CCN2C
inactive: KM12 36.1 µM | SW-620 35.5 µM | HL-60 17.9 µM | SK-MEL-5 13.8 µM | HOP-62 25.1 µM | ACHN 40.6 µM | UO-31 46.2 µM | IGROV-1 26.8 µM | NCI-H226 29.6 µM | SN12C 58.6 µM | LOX IMVI 49.5 µM | NCI-H522 23.1 µM | U-251 39 µM | OVCAR-8 45.7 µM | MOLT-4 24.1 µM | SK-OV-3 62.4 µM
